Data published in article PMC6207662, “Postprandial glycaemia-lowering effect of a green tea cultivar Sunrouge and cultivar-specific metabolic profiling for determining bioactivity-related ingredients” (Scientific Reports, 2018).
pIC50: −log10 of the molar value.

Legend:
[1] = biological target: T1, α-Glucosidase from Saccharomyces cerevisiae (Saccharomyces cerevisiae, UniProt P53341); test: Assay of α-glucosidase activity (cell-free, QuantiChrom kit); assay type: biochemical; conditions: for pIC50: cell-free system; for order of α-glucosidase inhibitory rate: 10 μM, n=3, Supplementary Fig. S4; for enhancement of α-glucosidase inhibitory ability by O-methylation (IC50 ratio non-methylated/methylated): IC50 of parent catechin / IC50 of its 3”-O-methylated form
T1 construct: purchased Sigma-Aldrich
Protocol: α-Glucosidase from Saccharomyces cerevisiae (Sigma-Aldrich) was dissolved in phosphate buffered saline (PBS) at a concentration of 0.01 mg/mL. Tea extracts were diluted 1:10 with distilled water. Tea extracts or various concentrations of flavonoids in DMSO were mixed 1:1 with the α-glucosidase solution. The α-glucosidase activity of the mixture was measured by the QuantiChrom™ α-Glucosidase Assay Kit (Bio Assay Systems, Hayward, CA, USA) according to the manufacturer’s instructions.

[2] = system: postprandial blood glucose level; test: Starch tolerance test in mice (postprandial blood glucose); assay type: in vivo, mice (male ICR); conditions: compound 500 mg/kg b.w. with soluble starch 2,000 mg/kg b.w., Supplementary Fig. S5
Protocol: Nine-week-old male ICR mice were purchased from Kyudo Company (Saga, Japan). All mice were housed and maintained in a temperature and humidity controlled room with a 12-h light-dark cycle (light from 8 am to 8 pm). All animal studies were performed in accordance with the law (protocol no. 105) and notification (protocol no. 6) of the Japanese government for the welfare of experimental animals. The study protocol was approved by the Animal Care and Use Committee, Kyushu University (Kyushu University, Scientific Research Promotion Division). Mice were randomly divided into 3 groups (n = 8) with equivalent mean body weight and starved overnight. Mice were orally administered with soluble starch (2,000 mg/kg b.w.) (Wako, Osaka, Japan) alone, or in combination with a test sample. All solutions were made in distilled water. Blood was sampled from the tail vein at before (t = 0), 30, 60, 90, 120 and 150 min after administration. The blood glucose level was measured with the Medisafe Mini GR-102 (Terumo Co., Tokyo, Japan) and the areas under the curves (AUC) were calculated.

T1 sequence (P53341 whole entry): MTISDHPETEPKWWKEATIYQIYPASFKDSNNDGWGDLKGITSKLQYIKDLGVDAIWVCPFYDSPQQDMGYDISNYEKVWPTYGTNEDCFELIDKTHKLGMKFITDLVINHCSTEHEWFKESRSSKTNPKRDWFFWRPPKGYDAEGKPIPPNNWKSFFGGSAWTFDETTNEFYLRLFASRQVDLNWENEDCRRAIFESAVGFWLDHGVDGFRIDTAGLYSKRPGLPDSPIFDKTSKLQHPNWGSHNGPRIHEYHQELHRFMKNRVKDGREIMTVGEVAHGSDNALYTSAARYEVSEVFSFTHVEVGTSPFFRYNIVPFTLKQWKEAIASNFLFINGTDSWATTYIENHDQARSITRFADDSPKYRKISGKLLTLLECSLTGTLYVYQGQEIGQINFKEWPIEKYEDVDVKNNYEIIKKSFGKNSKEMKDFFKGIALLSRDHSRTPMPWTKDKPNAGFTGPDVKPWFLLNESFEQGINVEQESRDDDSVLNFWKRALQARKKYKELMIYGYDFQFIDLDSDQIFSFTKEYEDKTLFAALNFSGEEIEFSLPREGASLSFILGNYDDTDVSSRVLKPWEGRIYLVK

Oc1cc(O)c2cc(O)c(-c3cc(O)c(O)c(O)c3)[o+]c2c1 [Del, delphinidin]
pIC50 [1]: 4.50

OC[C@H]1O[C@@H](Oc2cc3c(O)cc(O)cc3[o+]c2-c2cc(O)c(O)c(O)c2)[C@H](O)[C@@H](O)[C@@H]1O [Del-glu, delphinidin-3-O-glucoside]
pIC50 [1]: < 4.00

COc1cc(C(=O)O[C@@H]2Cc3c(O)cc(O)cc3O[C@@H]2c2ccc(O)c(O)c2)cc(O)c1O [ECG3”Me, epicatechin-3-O-(3-O-methyl) gallate]
order of α-glucosidase inhibitory rate [1]: EGCG3”Me > EGCG > ECG3”Me > ECG
pIC50 [1]: 4.83

O=c1c(O)c(-c2cc(O)c(O)c(O)c2)oc2cc(O)cc(O)c12 [Myr, myricetin]
elevation of postprandial blood glucose level in oral starch tolerance test [2]: suppressed the elevation of postprandial blood glucose level
pIC50 [1]: 5.36

O=c1c(OC2O[C@H](CO)[C@@H](O)[C@H](O)[C@H]2O)c(-c2cc(O)c(O)c(O)c2)oc2cc(O)cc(O)c12 (some centres unmarked) [Myr-glu, myricetin-3-O-glucoside]
pIC50 [1]: < 4.00

CCNC(=O)CC[C@H](N)C(=O)O [theanine, L-theanine]
effect on the activity of α-glucosidase ([1]; Supplementary Fig. S2): elevated the activity of α-glucosidase

epicatechin-3-O-gallate [ECG]
order of α-glucosidase inhibitory rate [1]: EGCG3”Me > EGCG > ECG3”Me > ECG
enhancement of α-glucosidase inhibitory ability by O-methylation (IC50 ratio non-methylated/methylated) [1]: 4.2 fold
pIC50 [1]: 4.21

epigallocatechin-3-O-(3-O-methyl) gallate [EGCG3”Me]
order of α-glucosidase inhibitory rate [1]: EGCG3”Me > EGCG > ECG3”Me > ECG
pIC50 [1]: 5.09

epigallocatechin-3-O-gallate [EGCG]
elevation of postprandial blood glucose level in oral starch tolerance test [2]: suppressed the elevation of postprandial blood glucose level
order of α-glucosidase inhibitory rate [1]: EGCG3”Me > EGCG > ECG3”Me > ECG
enhancement of α-glucosidase inhibitory ability by O-methylation (IC50 ratio non-methylated/methylated) [1]: 1.6 fold
pIC50 [1]: 4.88
